Results as given in patent US8759300B2, “Polypeptides and methods of use” (The Research Foundation for the State University of New York, priority 2007, dated 2014).
No end group written: not given here.

Tests used:
[1] = test system: PDGF-BB binding to intact human plasma FN; assay: Inhibition of I125 PDGF-BB binding to immobilized FN by growth factor peptide; conditions: increasing concentrations of peptide; 25° C., 2 hours
Protocol: (§1) FIG. 9. Inhibition of TGF-β1 and PDGF-BB binding to intact human plasma FN with TGF-β1 and PDGF-BB FN-binding peptides, respectively. FN was adsorbed onto tissue culture plastic at a concentration of 0.125 μM and then excess protein-binding sites of the plastic blocked with 2% bovine serum albumin. Growth factor labeled with I^125 was incubated with FN-coated plates at 25° C. for 2 hours in the presence or absence of peptide. Data was calculated as [(GF binding in presence of peptide−background)/(GF binding in absence of peptide-background)]×100. n=3.
(§2) Two of these synthetic peptides (homologous to TGF-β1 and homologous to PDGF-BB) inhibit TGF-β1 and PDGF-BB binding to FN respectively (FIG. 9). Inhibition of TGF-β1 and PDGF-BB binding to intact human plasma FN was determined as follows. FN was adsorbed onto tissue culture plastic at a concentration of 0.125 μM and then excess protein-binding sites of the plastic blocked with 2% bovine serum albumin. Growth factor labeled with I^125 was incubated with FN-coated plates at 25° C. for 2 hours in the presence or absence of peptide. For example, relative binding of TGF-β1 to immobilized FN was determined for increasing concentrations of the synthetic peptide homologous to TGF-β1. […] For example, relative binding of PDGF-BB to immobilized FN was determined for increasing concentrations of the synthetic peptide homologous to PDGF-BB. […]

FN-null cells = assay: FN-null cell assay, peptides added directly to medium on FNIII8-11; type: cell-based, mouse; conditions: peptide added directly to media with or without PDGF-BB
Protocol: FIG. 6. FN-null fibroblast response to soluble, unconjugated P5 (SEQ ID NO:37). FN-null cells were cultured at 4,000 cells/well in 96 well plates precoated with 0.125 mM of FNIII8-11 in DMEM for 4 hrs, and then further incubated in DMEM+2% BSA with or without the indicated concentrations of Peptide 5 at 37° C. for 3 days. Cells were counted in three 10× fields in each of 4 wells (mean±SD, n−12).
Scrambled variants of peptides 1 and 5 had no activity in these assays.
Variants of peptide 5 derived from fibronectin were generated by removing one amino acid at a time from the N-terminus or C-terminus of Peptide 5 (Table 2). These peptides (P12-P24) were added directly to medium with or without PDGF-BB.

AHDF cells = assay: AHDF proliferation response to PDGF-BB, XTT assay; type: cell-based, human; conditions: 30 ng/mL PDGF-BB, 1 week
Protocol: FIG. 7. […] AHDF cells were cultured at 4,000 cells/well in uncoated 96-well plates. Cells were incubated in DMEM for 4 hrs, and then further incubated in DMEM, 2% BSA, 30 ng/mL PDGF-BB with and without Peptide 5 (P5) at 37° C. for 1 week. Proliferation was estimated by the XTT assay (Promega) according to the manufacturer's instructions (mean±SD, n=4).

[2] = test system: TGF-β1 binding to intact human plasma FN; assay: Inhibition of I125 TGF-β1 binding to immobilized FN by growth factor peptide; conditions: increasing concentrations of peptide; 25° C., 2 hours
TGF-β1 binding to intact human plasma FN, sequence (P02751 610-812 limits assumed): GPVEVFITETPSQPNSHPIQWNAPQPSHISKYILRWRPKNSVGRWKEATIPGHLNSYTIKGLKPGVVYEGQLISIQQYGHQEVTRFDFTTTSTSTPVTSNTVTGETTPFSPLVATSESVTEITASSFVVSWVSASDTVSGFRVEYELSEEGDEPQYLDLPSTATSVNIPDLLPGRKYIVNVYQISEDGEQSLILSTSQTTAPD
TGF-β1 binding to intact human plasma FN, sequence (P02751 1815-2080 limits assumed): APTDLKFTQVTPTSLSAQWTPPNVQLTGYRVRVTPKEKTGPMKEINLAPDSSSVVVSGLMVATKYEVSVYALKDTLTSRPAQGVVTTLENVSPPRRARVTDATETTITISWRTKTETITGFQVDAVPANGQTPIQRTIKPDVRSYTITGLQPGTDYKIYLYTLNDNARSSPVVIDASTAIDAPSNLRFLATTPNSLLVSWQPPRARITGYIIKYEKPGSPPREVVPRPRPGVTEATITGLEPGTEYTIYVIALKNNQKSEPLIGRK
Protocol: as §1, §2

PDGF-BB binding to intact human plasma FN, sequence (P02751 610-812 limits assumed): as the sequence (P02751 610-812 limits assumed) above
PDGF-BB binding to intact human plasma FN, sequence (P02751 1815-2080 limits assumed): as the sequence (P02751 1815-2080 limits assumed) above

Sequence: CKTRTEVFEISRRLI [synthetic peptide homologous to PDGF-BB]
- Proportion of full-length PDGF-BB bound to immobilized FN [1]: decreased with increasing concentration

Sequence: QPSHISKYILRWRPK [P5, QPSHISKYILRWRPK]
- FN null cell survival and proliferation (FN-null cells): supported FN null cell survival and proliferation
- AHDF proliferation response to PDGF-BB (AHDF cells): enhanced AHDF proliferation response to PDGF-BB

Sequence: CCVRQLYIDFRKDLG [synthetic peptide homologous to TGF-β1]
- Proportion of full-length TGF-β1 bound to immobilized FN [2]: decreased with increasing concentration
